Structures can show the parent of a compound that is named as a salt. Where two headings read alike, the source gives them in different places.
What was measured:
Type in all cases: cell-based
SUDHL10 cells [1] = experiment: Induction of cytotoxicity in SUDHL10 cells (Assay 6)
How it was run: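 Cells plated overnight at 37 °C, then exposed to compound for 5 h in a humidified incubator at 37 °C. Viability read by CellTiter-Glo luminescence after 15 min shaking at room temperature; cell-free medium served as control.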

SUDHL5 cells [2] = experiment: Induction of caspase-3/7 activity in SUDHL5 cells (Assay 4)
How it was run: (§1)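 Caspase-3/7 activity measured in DLBCL lines after 3 h compound exposure at 37 °C, following overnight plating; Caspase-Glo 3/7 luminescence read after 1 h at 37 °C. Medium-only background subtracted, values normalized to mean of DMSO-treated cells.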

SUDHL10 cells [3] = experiment: Induction of caspase-3/7 activity in SUDHL10 cells (Assay 4)
How it was run: as §1

SUDHL5 cells [4] = experiment: Antiproliferation assay SUDHL5 (Assay 7)
How it was run: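 Growth inhibition is determined from ATP luminescence (CellTiter-Glo) following 72 h incubation with compound. Time-zero cells are measured the same way for baseline, and IC50s are referenced to DMSO controls.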

[5] = Homo sapiens, SU-DHL10, 5 h, 5 h, CellTiter-Glo; read-out: Cytotox SUDHL10 IC50 (median)
[6] = Homo sapiens, SU-DHL-5, 3 h, caspase-3/7 induction, 3 h; read-out: Caspase SUDHL5 EC50 (median)
[7] = Homo sapiens, SU-DHL10, 3 h, caspase-3/7 induction, 3 h; read-out: Caspase SUDHL10 EC50 (median)
[8] = Homo sapiens, SU-DHL-5, 72 h, 72 h, CellTiter-Glo; read-out: Antiproli SUDHL5 IC50 (median)
[9] = 5 h, CellTiter-Glo; read-out: Cytotox SUDHL10 IC50 (median)
[10] = read-out: Caspase SUDHL5 EC50 (median); caspase-3/7 induction, 3 h
[11] = read-out: Caspase SUDHL10 EC50 (median); caspase-3/7 induction, 3 h
[12] = read-out: Antiproli SUDHL5 IC50 (median); 72 h, CellTiter-Glo
[13] = caspase-3/7 induction, 3 h; read-out: Caspase SUDHL5 EC50 (median)
[14] = caspase-3/7 induction, 3 h; read-out: Caspase SUDHL10 EC50 (median)
[15] = 72 h, CellTiter-Glo; read-out: Antiproli SUDHL5 IC50 (median)

Row | EC50 (SUDHL5 cells [2]; [6]) | EC50 (SUDHL10 cells [3]; [7]) | IC50 (SUDHL5 cells [4]; [8]) | Compound | IC50 (SUDHL10 cells [1]; [5]) | IC50 (SUDHL10 cells [1]; [9]) | further results
1 | 430 nM | 570 nM | 5100 nM | CCc1c2c(nn1C)C(c1ccccc1)OCCCCn1c(C(=O)O)c(CCCOc3cccc4cc(F)ccc34)c3ccc(Cl)c-2c31 (racemic) [Example 59, (rac)-4-chloro-3-ethyl-7-{3-[(6-fluoronaphthalen-1-yl)oxy]propyl}-2-methyl-(15-rac)-phenyl-2,10,11,12,13,15-hexahydropyrazolo[4′,3′:9,10][1,6]oxazacycloundecino[8,7,6-hi]indole-8-carboxylic Acid] | 1000 nM |  | 
2 | 48 nM | 42 nM | 490 nM | CCc1c2c(nn1C)C(CCCN1CCOCC1)OCCCCn1c(C(=O)O)c(CCCOc3cccc4cc(F)ccc34)c3ccc(Cl)c-2c31 (racemic) [Example 65, (rac)-4-chloro-3-ethyl-7-{3-[(6-fluoronaphthalen-1-yl)oxy]propyl}-2-methyl-(15-rac)-[3-(morpholin-4-yl)propyl]-2,10,11,12,13,15-hexahydropyrazolo[4′,3′:9,10][1,6]oxazacycloundecino[8,7,6-hi]indole-8-carboxylic Acid] | 100 nM |  | 
3 |  |  |  | CCc1c2c(nn1C)C(CCC1CCOCC1)OCCCCn1c(C(=O)O)c(CCCOc3cccc4cc(F)ccc34)c3ccc(Cl)c-2c31 (single isomer, unassigned; enantiomer 1) [Example 63, (+)-4-chloro-3-ethyl-7-{3-[(6-fluoronaphthalen-1-yl)oxy]propyl}-2-methyl-15-[2-(oxan-4-yl)ethyl]-2,10,11,12,13,15-hexahydropyrazolo[4′,3′:9,10][1,6]oxazacycloundecino[8,7,6-hi]indole-8-carboxylic Acid—N-ethylethanamine Salt (Enantiomer 1)] |  | 67 nM | EC50 (SUDHL5 cells [2]; [10]): 35 nM; EC50 (SUDHL10 cells [3]; [11]): 53 nM; IC50 (SUDHL5 cells [4]; [12]): 42 nM
4 |  |  |  | CCc1c2c(nn1C)C(CCN1CCOCC1)OCCCCn1c(C(=O)O)c(CCCOc3cccc4ccccc34)c3ccc(F)c-2c31 (single isomer, unassigned; enantiomer 2) [Example 12, 3-ethyl-4-fluoro-2-methyl-15-[2-(morpholin-4-yl)ethyl]-7-{3-[(naphthalen-1-yl)oxy]propyl}-2,10,11,12,13,15-hexahydropyrazolo[4′,3′:9,10][1,6]oxazacycloundecino[8,7,6-hi]indole-8-carboxylic Acid—N-ethylethanamine Salt (Enantiomer 2)] |  | 8100 nM | EC50 (SUDHL5 cells [2]; [10]): 2700 nM; EC50 (SUDHL10 cells [3]; [11]): 7100 nM; IC50 (SUDHL5 cells [4]; [12]): 2600 nM
5 | 45 nM | 33 nM | 67 nM | CCc1c2c(nn1C)C(CCC(C)(C)O)OCCCCn1c(C(=O)O)c(CCCOc3cccc4cc(F)ccc34)c3ccc(Cl)c-2c31 (racemic) [Example 74, (rac)-4-chloro-3-ethyl-7-{3-[(6-fluoronaphthalen-1-yl)oxy]propyl}-(15-rac)-(3-hydroxy-3-methylbutyl)-2-methyl-2,10,11,12,13,15-hexahydropyrazolo[4′,3′:9,10][1,6]oxazacycloundecino[8,7,6-hi]indole-8-carboxylic Acid] | 55 nM |  | 
6 |  |  |  | Cc1c2c(nn1C)C(CCN1CCOCC1)OCCCCn1c(C(=O)O)c(CCCOc3cccc4ccccc34)c3ccc(Cl)c-2c31 (single isomer, unassigned; enantiomer 2) [Example 15, 4-chloro-2,3-dimethyl-15-[2-(morpholin-4-yl)ethyl]-7-{3-[(naphthalen-1-yl)oxy]propyl}-2,10,11,12,13,15-hexahydropyrazolo[4′,3′:9,10][1,6]oxazacycloundecino[8,7,6-hi]indole-8-carboxylic Acid (Enantiomer 2)] |  | 9700 nM | EC50 (SUDHL5 cells [2]; [13]): 2300 nM; EC50 (SUDHL10 cells [3]; [14]): 11000 nM; IC50 (SUDHL5 cells [4]; [15]): 2500 nM
7 |  |  |  | CCc1c2c(nn1C)C(CCC1CCOCC1)OCCCCn1c(C(=O)O)c(CCCOc3cccc4cc(F)ccc34)c3ccc(Cl)c-2c31 (single isomer, unassigned; enantiomer 1) [Example 61, 4-chloro-3-ethyl-7-{3-[(6-fluoronaphthalen-1-yl)oxy]propyl}-2-methyl-15-[2-(oxan-4-yl)ethyl]-2,10,11,12,13,15-hexahydropyrazolo[4′,3′:9,10][1,6]oxazacycloundecino[8,7,6-hi]indole-8-carboxylic Acid (Enantiomer 1)] |  | 29 nM | EC50 (SUDHL5 cells [2]; [13]): 31 nM; EC50 (SUDHL10 cells [3]; [14]): 23 nM; IC50 (SUDHL5 cells [4]; [15]): 24 nM
8 | 770 nM | 1000 nM | 1400 nM | CCc1c2c(nn1C)C1CCCCN1CCCCn1c(C(=O)O)c(CCCOc3cccc4ccccc34)c3ccc(Cl)c-2c31 (racemic) [Example 102, (rac)-18-chloro-1-ethyl-2-methyl-15-[3-(1-naphthyloxy)propyl]-2,3b,4,5,6,7,9,10,11,12-decahydropyrazolo[3′,4′:8,9]pyrido[1′,2′:6,7][1,6]diazacycloundecino[10,11,1-hi]indole-14-carboxylic Acid] | 950 nM |  | 
9 |  |  |  | CCc1c2c(nn1C)C1CCCN1CCCCn1c(C(=O)O)c(CCCOc3cccc4cc(F)ccc34)c3ccc(Cl)c-2c31 (single isomer, unassigned; (+)) [Example 105, (+)-17-chloro-1-ethyl-14-{3-[(6-fluoronaphthalen-1-yl)oxy]propyl}-2-methyl-3b,4,5,6,8,9,10,11-octahydro-2H-pyrazolo[3′,4′:8,9]pyrrolo[1′,2′:6,7][1,6]diazacycloundecino[10,11,1-hi]indole-13-carboxylic Acid] |  | 290 nM | EC50 (SUDHL5 cells [2]; [13]): 330 nM; EC50 (SUDHL10 cells [3]; [14]): 130 nM; IC50 (SUDHL5 cells [4]; [15]): 340 nM
10 |  |  |  | Cc1c2c(nn1C)C(C)OCCCCn1c(C(=O)O)c(CCCOc3cccc4ccccc34)c3cccc-2c31 (single isomer, unassigned; stereoisomer 2) [Example 3, 2,3,15-trimethyl-7-[3-(naphthalen-1-yloxy)propyl]-2,10,11,12,13,15-hexahydropyrazolo[4′,3′:9,10][1,6]oxazacycloundecino[8,7,6-hi]indole-8-carboxylic Acid Trifluoroacetic Acid Salt (Stereoisomer 2)] |  |  | IC50 (SUDHL10 cells [1]; read-out: Cytotox SUDHL10 IC50 (median); 5 h, CellTiter-Glo): 26000 nM; EC50 (SUDHL5 cells [2]; [10]): > 33000 nM; EC50 (SUDHL10 cells [3]; [11]): > 33000 nM; IC50 (SUDHL5 cells [4]; [12]): 20000 nM
11 | 3200 nM | 6600 nM | 170 nM | CCc1c2c(nn1C)C(C(F)(F)F)OCCCCn1c(C(=O)O)c(CCCOc3cccc4ccccc34)c3ccc(Cl)c-2c31 (racemic) [Example 27, (rac)-4-Chloro-3-ethyl-2-methyl-7-{3-[(naphthalen-1-yl)oxy]propyl}-15-(trifluoromethyl)-2,10,11,12,13,15-hexahydropyrazolo[4′,3′:9,10][1,6]oxazacycloundecino[8,7,6-hi]indole-8-carboxylic Acid] | 9600 nM |  | 

Row | Compound | EC50 (SUDHL5 cells [2]; [6]) | EC50 (SUDHL10 cells [3]; [7]) | IC50 (SUDHL5 cells [4]; [8]) | IC50 (SUDHL10 cells [1]; [5]) | IC50 (SUDHL10 cells [1]; [9]) | further results
12 | CCC1OCCCCn2c(C(=O)O)c(CCCOc3cccc4ccccc34)c3ccc(Cl)c(c32)-c2c1nn(C)c2C (racemic) [Example 25, (rac)-4-chloro-15-ethyl-2,3-dimethyl-7-{3-[(naphthalen-1-yl)oxy]propyl}-2,10,11,12,13,15-hexahydropyrazolo[4′,3′:9,10][1,6]oxazacycloundecino[8,7,6-hi]indole-8-carboxylic Acid] | 2000 nM | 10000 nM | 2300 nM | 8800 nM |  | 
13 | CCc1c2c(nn1C)C(CCN1CCC(F)(F)C1)OCCCCn1c(C(=O)O)c(CCCOc3cccc4cc(F)ccc34)c3ccc(Cl)c-2c31 (racemic) [Example 55, (rac)-4-chloro-(15-rac)-[2-(3,3-difluoropyrrolidin-1-yl)ethyl]-3-ethyl-7-{3-[(6-fluoronaphthalen-1-yl)oxy]propyl}-2-methyl-2,10,11,12,13,15-hexahydropyrazolo[4′,3′:9,10][1,6]oxazacycloundecino[8,7,6-hi]indole-8-carboxylic acid—2-hydroxypropane-1,2,3-tricarboxylic Acid Salt] | 32 nM | 47 nM | 67 nM | 68 nM |  | 
14 | CCc1c2c(nn1C)C(CCN1CCOCC1)OCCCCn1c(C(=O)O)c(CCCOc3cccc4ccccc34)c3ccc(F)c-2c31 (racemic) [Example 10, (rac)-3-ethyl-4-fluoro-2-methyl-15-[2-(morpholin-4-yl)ethyl]-7-[3-(naphthalen-1-yloxy)propyl]-2,10,11,12,13,15-hexahydropyrazolo[4′,3′:9,10][1,6]oxazacycloundecino[8,7,6-hi]indole-8-carboxylic Acid] | 110 nM | 220 nM | 160 nM | 300 nM |  | 
15 | Cc1c2c(nn1C)C(CCN1CCOCC1)OCCCCn1c(C(=O)O)c(CCCOc3cccc4cc(F)ccc34)c3ccc(F)c-2c31 (racemic) [Example 19, (rac)-4-fluoro-7-{3-[(6-fluoronaphthalen-1-yl)oxy]propyl}-2,3-dimethyl-15-[2-(morpholin-4-yl)ethyl]-2,10,11,12,13,15-hexahydropyrazolo[4′,3′:9,10][1,6]oxazacycloundecino[8,7,6-hi]indole-8-carboxylic Acid] | 73 nM | 79 nM | 77 nM | 110 nM |  | 

Reference: US11440923B2, “Substituted macrocyclic indole derivatives” (Bayer Aktiengesellschaft, priority 2017, dated 2022)
